Data reported in PubChem BioAssay AID248 (DTP/NCI, 2004).
Inconclusive results and toxic doses are left out. Rule as the data show it: active = T/C of 150% or more; inactive = T/C below 125%.

Tested on: L1210 leukemia ip in BDF1 mice, survival T/C
Experiment: NCI In Vivo Anticancer Drug Screen. Data for tumor model L1210 Leukemia (intraperitoneal) in B6D2F1 (BDF1) mice
Details: endpoint: mean survival time, higher = longer survival
Summary of the method: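 Transplanted-tumor mice were given test agent; controls received vehicle only. Survival readings from the two groups were divided (treated over control).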

[1] = dose: 100.0 mg/kg/injection, schedule: Q04DX002 (ip), vehicle: Klucel (hydroxypropylcellulose) (HPC)
[2] = dose: 200.0 mg/kg/injection, schedule: Q04DX002 (ip), vehicle: Klucel (hydroxypropylcellulose) (HPC)
[3] = dose: 100.0 mg/kg/injection, schedule: Q04DX003 (ip), vehicle: saline
[4] = dose: 100.0 mg/kg/injection, schedule: Q01DX001 (ip), vehicle: saline

Measured: T/C

C[N+](C)(C)c1ccc(F)c([N+](=O)[O-])c1
inactive: dose: 50.0 mg/kg/injection, schedule: Q01DX005 (ip), vehicle: Klucel (hydroxypropylcellulose) (HPC) 95 % of control | dose: 50.0 mg/kg/injection, schedule: Q01DX009 (ip), vehicle: Klucel (hydroxypropylcellulose) (HPC) 96 % of control | dose: 100.0 mg/kg/injection, schedule: Q01DX005 (ip), vehicle: Klucel (hydroxypropylcellulose) (HPC) 98 % of control | dose: 100.0 mg/kg/injection, schedule: Q01DX009 (ip), vehicle: Klucel (hydroxypropylcellulose) (HPC) 96 % of control | [1] 90 % of control | dose: 200.0 mg/kg/injection, schedule: Q01DX005 (ip), vehicle: Klucel (hydroxypropylcellulose) (HPC) 103 % of control | dose: 200.0 mg/kg/injection, schedule: Q01DX009 (ip), vehicle: Klucel (hydroxypropylcellulose) (HPC) 96 % of control | [2] 96 % of control

O=c1ccn(Cc2ccccc2)cn1
inactive: [3] 106 % of control | dose: 200.0 mg/kg/injection, schedule: Q04DX003 (ip), vehicle: saline 104 % of control | dose: 400.0 mg/kg/injection, schedule: Q04DX003 (ip), vehicle: saline 98 % of control

N#CCCN(CCCN1CCOCC1)CN1C(=O)c2ccccc2C1=O
inactive: dose: 100.0 mg/kg/injection, schedule: Q04DX002 (ip), vehicle: saline 104 % of control | dose: 200.0 mg/kg/injection, schedule: Q04DX002 (ip), vehicle: saline 93 % of control | dose: 400.0 mg/kg/injection, schedule: Q04DX002 (ip), vehicle: saline 111 % of control

O=S(=O)(Nc1ccccn1)c1ccc(N(CCCl)CCCl)cc1
inactive: dose: 100.0 mg/kg/injection, schedule: Q01DX001 (ip), vehicle: other 95 % of control | dose: 200.0 mg/kg/injection, schedule: Q01DX001 (ip), vehicle: other 103 % of control | dose: 400.0 mg/kg/injection, schedule: Q01DX001 (ip), vehicle: other 106 % of control

Cc1cc2c(N)[nH]c(=O)nc2s1
inactive: dose: 100.0 mg/kg/injection, schedule: Q04DX003 (ip), vehicle: water 90 % of control | dose: 200.0 mg/kg/injection, schedule: Q04DX003 (ip), vehicle: water 93 % of control

CCOc1ccc(-c2cc(=O)c3c(OC)c(OC)c(OC)c(OC)c3o2)cc1
inactive: dose: 100.0 mg/kg/injection, schedule: Q01DX001 (sc), vehicle: steriod suspending solution 111 % of control | dose: 200.0 mg/kg/injection, schedule: Q01DX001 (sc), vehicle: steriod suspending solution 96 % of control | dose: 400.0 mg/kg/injection, schedule: Q01DX001 (sc), vehicle: steriod suspending solution 96 % of control

C=NC
inactive: [4] 105 % of control | [3] 103 % of control

CC(=O)OCC1OC(OC2=C(c3ccccc3)C(=O)C(OC3OC(COC(C)=O)C(OC(C)=O)C(OC(C)=O)C3OC(C)=O)=C(c3ccccc3)C2=O)C(OC(C)=O)C(OC(C)=O)C1OC(C)=O (configuration not stated)
inactive: dose: 100.0 mg/kg/injection, schedule: Q04DX002 (ip), vehicle: saline with Tween-80 91 % of control | dose: 200.0 mg/kg/injection, schedule: Q04DX002 (ip), vehicle: saline with Tween-80 91 % of control | dose: 400.0 mg/kg/injection, schedule: Q04DX002 (ip), vehicle: saline with Tween-80 95 % of control

O=C(Nc1ccccc1Cl)Nc1ccccc1[N+](=O)[O-]
inactive: dose: 100.0 mg/kg/injection, schedule: Q04DX002 (ip), vehicle: saline + alcohol 111 % of control | dose: 200.0 mg/kg/injection, schedule: Q04DX002 (ip), vehicle: saline + alcohol 100 % of control | dose: 400.0 mg/kg/injection, schedule: Q04DX002 (ip), vehicle: saline + alcohol 96 % of control

COc1ccc(F)cc1CC(N)=O
inactive: [1] 101 % of control | [2] 97 % of control | dose: 400.0 mg/kg/injection, schedule: Q04DX002 (ip), vehicle: Klucel (hydroxypropylcellulose) (HPC) 104 % of control

CC1(C)N=C(N)N=C(N)N1c1ccc(CCNS(=O)(=O)c2cccc(S(=O)(=O)F)c2)cc1
inactive: [4] 96 % of control | dose: 200.0 mg/kg/injection, schedule: Q01DX001 (ip), vehicle: saline 94 % of control | dose: 400.0 mg/kg/injection, schedule: Q01DX001 (ip), vehicle: saline 96 % of control

Cc1ccc(C(=O)C2CC2c2ccccc2)cc1 (configuration not stated)
inactive: dose: 100.0 mg/kg/injection, schedule: Q04DX003 (ip), vehicle: Klucel (hydroxypropylcellulose) (HPC) 101 % of control | dose: 200.0 mg/kg/injection, schedule: Q04DX003 (ip), vehicle: Klucel (hydroxypropylcellulose) (HPC) 101 % of control | dose: 400.0 mg/kg/injection, schedule: Q04DX003 (ip), vehicle: Klucel (hydroxypropylcellulose) (HPC) 95 % of control

O=C(O)CC(CC(=O)O)c1cccc([N+](=O)[O-])c1
inactive: dose: 100.0 mg/kg/injection, schedule: Q01DX001 (ip), vehicle: acetone 96 % of control | dose: 200.0 mg/kg/injection, schedule: Q01DX001 (ip), vehicle: acetone 98 % of control | dose: 400.0 mg/kg/injection, schedule: Q01DX001 (ip), vehicle: acetone 98 % of control
